Reference: ChEMBL document CHEMBL1201862, “PubChem BioAssay data set” (2004)
Active and inactive are the calls of the source.

Columns and labels:
[1] = biological target: T1, Tyrosine-protein phosphatase non-receptor type 11 (Homo sapiens, UniProt Q06124); test: SHP2 phosphatase inhibition, dose response, selectivity assay for STEP inhibitor project, biochemical (AID 602367); format: functional; conditions: read-out: IC50_Mean
T1 sequence (Q06124 whole entry): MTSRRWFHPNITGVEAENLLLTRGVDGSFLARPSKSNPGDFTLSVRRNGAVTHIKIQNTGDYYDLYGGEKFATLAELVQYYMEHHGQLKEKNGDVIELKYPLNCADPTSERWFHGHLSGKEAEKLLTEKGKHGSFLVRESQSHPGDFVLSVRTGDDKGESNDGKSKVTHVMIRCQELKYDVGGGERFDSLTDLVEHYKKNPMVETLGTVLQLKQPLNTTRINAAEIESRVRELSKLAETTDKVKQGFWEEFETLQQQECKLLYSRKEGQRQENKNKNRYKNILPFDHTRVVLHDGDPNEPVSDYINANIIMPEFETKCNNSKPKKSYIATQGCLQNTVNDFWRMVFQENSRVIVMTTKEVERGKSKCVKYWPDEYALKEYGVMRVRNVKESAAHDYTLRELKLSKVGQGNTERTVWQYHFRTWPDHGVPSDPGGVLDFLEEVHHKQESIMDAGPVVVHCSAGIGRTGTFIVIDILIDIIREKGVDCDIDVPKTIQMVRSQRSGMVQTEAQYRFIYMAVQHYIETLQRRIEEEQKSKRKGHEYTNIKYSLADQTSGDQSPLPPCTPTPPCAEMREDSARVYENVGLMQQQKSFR

[2] = biological target: T2, Tyrosine-protein phosphatase non-receptor type 5 (Homo sapiens, UniProt P54829); test: STEP phosphatase inhibitors, confirmation, biochemical, fluorescence intensity, uHTS hits (AID 602372); format: functional; conditions: read-out: IC50_Mean
T2 sequence (P54829 whole entry): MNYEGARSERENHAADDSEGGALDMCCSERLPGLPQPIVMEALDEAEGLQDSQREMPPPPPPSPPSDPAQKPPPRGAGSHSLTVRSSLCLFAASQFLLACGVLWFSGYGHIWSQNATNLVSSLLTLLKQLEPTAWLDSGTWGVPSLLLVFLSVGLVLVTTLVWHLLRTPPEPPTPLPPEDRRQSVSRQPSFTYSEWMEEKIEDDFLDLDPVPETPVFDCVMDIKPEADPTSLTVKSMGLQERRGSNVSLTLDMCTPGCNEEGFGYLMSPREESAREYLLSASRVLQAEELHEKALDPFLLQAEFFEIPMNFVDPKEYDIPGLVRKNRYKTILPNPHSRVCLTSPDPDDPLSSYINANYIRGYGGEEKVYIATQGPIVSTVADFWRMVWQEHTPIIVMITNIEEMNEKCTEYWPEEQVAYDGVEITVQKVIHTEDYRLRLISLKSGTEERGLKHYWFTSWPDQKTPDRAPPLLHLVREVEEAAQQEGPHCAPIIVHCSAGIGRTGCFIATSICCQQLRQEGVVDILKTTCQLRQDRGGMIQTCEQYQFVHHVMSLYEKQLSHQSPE

[3] = biological target: Dual specificity protein phosphatase 3 (Homo sapiens, UniProt P51452); test: VHR phosphatase inhibition, dose response, selectivity assay for STEP inhibitor project, biochemical (AID 602374); format: functional; conditions: read-out: IC50_Mean
[4] = biological target: T3, Short transient receptor potential channel 4 (Mus musculus, UniProt Q9QUQ5); test: mouse TRPC4 channel activators, dose response, cell-based, HEK293 TRPC4/mu-opioid, Fluo-4 calcium (AID 434937); format: functional
T3 sequence (Q9QUQ5 whole entry): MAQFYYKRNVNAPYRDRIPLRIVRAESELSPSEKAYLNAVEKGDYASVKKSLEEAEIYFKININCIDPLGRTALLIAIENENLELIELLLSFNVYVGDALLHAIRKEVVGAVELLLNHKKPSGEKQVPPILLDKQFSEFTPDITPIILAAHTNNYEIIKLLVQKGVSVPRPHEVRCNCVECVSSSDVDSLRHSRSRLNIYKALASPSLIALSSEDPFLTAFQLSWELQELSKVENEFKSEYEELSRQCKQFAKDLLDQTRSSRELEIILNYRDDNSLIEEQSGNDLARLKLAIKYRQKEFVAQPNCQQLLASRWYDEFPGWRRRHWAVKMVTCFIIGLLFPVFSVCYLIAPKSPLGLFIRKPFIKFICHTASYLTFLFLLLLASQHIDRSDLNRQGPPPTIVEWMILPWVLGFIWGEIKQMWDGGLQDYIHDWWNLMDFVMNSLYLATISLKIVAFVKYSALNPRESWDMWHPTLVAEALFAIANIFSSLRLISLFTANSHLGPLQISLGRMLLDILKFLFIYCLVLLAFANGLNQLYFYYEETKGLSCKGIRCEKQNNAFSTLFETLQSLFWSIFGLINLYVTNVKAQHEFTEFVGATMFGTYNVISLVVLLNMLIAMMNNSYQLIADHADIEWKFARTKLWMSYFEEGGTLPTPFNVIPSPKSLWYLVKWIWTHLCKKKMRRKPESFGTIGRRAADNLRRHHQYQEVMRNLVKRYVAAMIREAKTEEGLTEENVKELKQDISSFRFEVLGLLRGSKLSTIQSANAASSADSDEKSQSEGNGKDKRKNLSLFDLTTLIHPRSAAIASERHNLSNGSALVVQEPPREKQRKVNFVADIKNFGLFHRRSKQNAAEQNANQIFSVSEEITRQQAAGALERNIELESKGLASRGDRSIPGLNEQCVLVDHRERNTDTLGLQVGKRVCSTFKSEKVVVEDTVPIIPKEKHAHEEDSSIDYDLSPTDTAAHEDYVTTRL

[5] = biological target: Beta-galactosidase (Escherichia coli, UniProt Q8VNN2); test: PubChem AID 485352; format: functional
[6] = biological target: T4, Type-1 angiotensin II receptor (Homo sapiens, UniProt P30556); test: AT1 receptor antagonists, dose response, selectivity assay for APJ receptor antagonist project, cell-based, uHTS hits (AID 463214); format: functional;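 further: antagonist potency against angiotensin II stimulated AT1 response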
T4 sequence (P30556 whole entry): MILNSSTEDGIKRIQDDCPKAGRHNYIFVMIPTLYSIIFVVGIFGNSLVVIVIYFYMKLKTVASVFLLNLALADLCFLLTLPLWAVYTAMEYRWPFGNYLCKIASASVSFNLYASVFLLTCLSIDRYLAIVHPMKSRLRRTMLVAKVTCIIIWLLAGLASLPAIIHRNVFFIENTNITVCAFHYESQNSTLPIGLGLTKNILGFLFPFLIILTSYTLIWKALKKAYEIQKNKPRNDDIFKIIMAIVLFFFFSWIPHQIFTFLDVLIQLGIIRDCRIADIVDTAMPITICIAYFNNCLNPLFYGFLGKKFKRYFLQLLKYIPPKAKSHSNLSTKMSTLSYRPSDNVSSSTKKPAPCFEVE

[7] = biological target: Glucose-6-phosphate 1-dehydrogenase (Homo sapiens, UniProt P11413); test: human G6PD enzyme inhibitors, dose response, selectivity assay for P. falciparum G6PD inhibitor project, biochemical, fluorescence (AID 504792); format: functional
[8] = biological target: T5, Small ubiquitin-related modifier 1 (Homo sapiens, UniProt P63165); test: inhibitors of SUMO1 peptide binding, dose response, biochemical, fluorescence polarization, uHTS hits (AID 624382); format: functional; conditions: read-out: IC50_Mean
[9] = biological target: T5, Small ubiquitin-related modifier 1; test: inhibitors of SUMO1 partner interactions, dose response, biochemical, FRET (AID 624383); format: functional; conditions: read-out: IC50_Mean
[10] = biological target: Melanocortin receptor 4 (Homo sapiens, UniProt P32245); format: functional, cell-based;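 further: Cell-based assay with luminescence read-out, confirmatory dose-response testing for agonist activity of biased ligands at MC4R; human U2OS cells with tagged receptor and beta-arrestin; potency of agonists that increase receptor coupling to beta-arrestin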
[11] = biological target: T6, Galanin receptor type 3 (Homo sapiens, UniProt O60755); test: Fluorescence-based cell-based primary high throughput dose response assay to identify antagonists of the Galanin Receptor 3 (GalR3).; format: functional
T6 sequence (O60755 whole entry): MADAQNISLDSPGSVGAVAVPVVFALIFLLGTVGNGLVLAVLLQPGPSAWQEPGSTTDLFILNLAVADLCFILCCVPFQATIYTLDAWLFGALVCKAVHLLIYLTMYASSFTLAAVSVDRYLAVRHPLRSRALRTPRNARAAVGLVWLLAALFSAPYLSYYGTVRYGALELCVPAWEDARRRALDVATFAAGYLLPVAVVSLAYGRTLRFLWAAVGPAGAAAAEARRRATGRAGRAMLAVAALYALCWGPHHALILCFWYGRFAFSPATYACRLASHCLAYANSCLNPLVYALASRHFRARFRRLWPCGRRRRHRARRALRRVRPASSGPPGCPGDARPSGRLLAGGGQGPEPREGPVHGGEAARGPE

[12] = cells; format: functional, cell-based; conditions: HEK-CNG
[13] = Luminescence Cell-Based Dose Response HTS to Identify Activators of Luciferase Translation or Activity in H4 […] Cells. [Related pubchem assays: 1829 (Project Summary), 1814 (Primary HTS)]; format: functional
[14] = tested on: H4; test: Luminescence Cell-Based Dose Response HTS to Identify Activators of 5'UTR Stem-Loop Driven Prion Protein mRNA Translation in H4 Neuroglioblastoma Cells. [Related pubchem assays: 1829 (Project Summary), 1814 (Primary HTS)]; format: functional; conditions: Homo sapiens
[15] = biological target: Dual specificity tyrosine-phosphorylation-regulated kinase 1A (Rattus norvegicus, UniProt Q63470); format: biochemical, Homo sapiens
[16] = tested on: H9c2; test: cells; format: functional, cell-based; conditions: Rattus norvegicus, H9c2, Myocardium;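 further: confirmatory concentration-response retest of ultra-high-throughput screening hits for modulation of myocardial damage; cell death induced by hydrogen peroxide oxidative stress; compound pretreatment for 60 min then peroxide exposure for 2 h; potency is for protecting the cells against peroxide damage rather than for killing them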
[17] = biological target: Paired box protein Pax-8 (Homo sapiens, UniProt Q06710); test: inhibitors of PAX8-driven TPO luciferase reporter, dose response, RMG-I cells, cherry-pick (AID 687027); format: functional, cell-based;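 further: luciferase reporter driven by Pax8 target thyroperoxidase promoter measured by SteadyGlo luminescence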
[18] = IGROV1 ovarian cancer cell cytotoxicity, dose response, PAX8 inhibitor project, plate reader, dry powder samples (AID 743043); format: functional, cell-based; conditions: IGROV-1
[19] = cytotoxicity in OVCAR8 ovarian cancer cells, dose response, PAX8 project, cell-based, plate reader, dry powder samples (AID 743197); format: functional; conditions: OVCAR-8
[20] = NIH:OVCAR-3 ovarian cancer cell cytotoxicity, dose response, PAX8 inhibitor project, plate reader, dry powder samples (AID 743044); format: functional, cell-based
[21] = biological target: FAD-linked sulfhydryl oxidase ALR (Homo sapiens, UniProt P55789); test: inhibitors of human ALR sulfhydryl oxidase, dose response, biochemical, H2O2 detection, luminescence, cherry-pick (AID 493248)
FAD-linked sulfhydryl oxidase ALR, sequence (P55789 whole entry): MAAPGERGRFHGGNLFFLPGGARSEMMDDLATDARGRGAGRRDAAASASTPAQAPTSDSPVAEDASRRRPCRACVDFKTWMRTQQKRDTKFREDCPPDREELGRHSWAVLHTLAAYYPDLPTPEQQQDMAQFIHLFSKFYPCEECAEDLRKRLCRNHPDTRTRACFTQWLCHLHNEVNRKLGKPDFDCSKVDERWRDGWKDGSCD

Beta-galactosidase, sequence (Q8VNN2 whole entry): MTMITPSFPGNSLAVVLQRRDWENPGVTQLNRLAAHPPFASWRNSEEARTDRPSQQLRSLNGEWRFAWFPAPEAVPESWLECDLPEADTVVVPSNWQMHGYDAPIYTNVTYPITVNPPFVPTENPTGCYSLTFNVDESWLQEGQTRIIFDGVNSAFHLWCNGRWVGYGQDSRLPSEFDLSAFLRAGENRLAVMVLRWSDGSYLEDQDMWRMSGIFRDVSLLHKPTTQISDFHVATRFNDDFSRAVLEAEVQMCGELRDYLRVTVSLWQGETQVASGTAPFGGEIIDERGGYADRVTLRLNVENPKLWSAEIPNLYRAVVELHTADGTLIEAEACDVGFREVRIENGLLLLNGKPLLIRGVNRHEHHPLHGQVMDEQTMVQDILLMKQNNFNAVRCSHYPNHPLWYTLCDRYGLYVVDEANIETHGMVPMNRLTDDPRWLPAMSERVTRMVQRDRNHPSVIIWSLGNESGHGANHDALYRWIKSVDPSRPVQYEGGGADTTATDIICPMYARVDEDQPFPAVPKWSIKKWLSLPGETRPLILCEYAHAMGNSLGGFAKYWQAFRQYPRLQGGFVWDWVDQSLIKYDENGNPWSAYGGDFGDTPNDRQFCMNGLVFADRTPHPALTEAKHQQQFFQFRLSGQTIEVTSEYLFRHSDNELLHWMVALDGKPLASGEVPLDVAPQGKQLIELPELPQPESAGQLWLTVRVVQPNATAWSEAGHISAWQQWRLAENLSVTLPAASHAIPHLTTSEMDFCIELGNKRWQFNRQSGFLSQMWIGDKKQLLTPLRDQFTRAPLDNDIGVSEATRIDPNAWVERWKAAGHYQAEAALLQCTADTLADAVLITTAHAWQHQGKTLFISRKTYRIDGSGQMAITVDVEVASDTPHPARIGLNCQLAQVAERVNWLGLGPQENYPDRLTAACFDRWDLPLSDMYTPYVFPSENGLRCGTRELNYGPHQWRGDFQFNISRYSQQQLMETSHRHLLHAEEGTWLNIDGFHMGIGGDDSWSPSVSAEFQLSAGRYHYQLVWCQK
T5 sequence (P63165 whole entry): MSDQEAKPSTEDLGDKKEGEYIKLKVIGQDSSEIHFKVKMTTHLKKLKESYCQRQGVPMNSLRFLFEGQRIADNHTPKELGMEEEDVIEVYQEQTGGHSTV
Melanocortin receptor 4, sequence (P32245 whole entry): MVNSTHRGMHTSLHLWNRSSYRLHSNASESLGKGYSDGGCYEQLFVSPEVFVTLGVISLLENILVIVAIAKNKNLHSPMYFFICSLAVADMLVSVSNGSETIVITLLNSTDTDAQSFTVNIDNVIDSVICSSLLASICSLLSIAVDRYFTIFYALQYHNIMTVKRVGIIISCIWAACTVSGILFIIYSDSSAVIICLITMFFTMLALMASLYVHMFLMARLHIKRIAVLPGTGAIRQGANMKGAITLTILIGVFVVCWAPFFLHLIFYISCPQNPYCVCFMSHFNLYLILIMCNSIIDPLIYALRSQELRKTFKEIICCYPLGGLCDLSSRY
Paired box protein Pax-8, sequence (Q06710 whole entry): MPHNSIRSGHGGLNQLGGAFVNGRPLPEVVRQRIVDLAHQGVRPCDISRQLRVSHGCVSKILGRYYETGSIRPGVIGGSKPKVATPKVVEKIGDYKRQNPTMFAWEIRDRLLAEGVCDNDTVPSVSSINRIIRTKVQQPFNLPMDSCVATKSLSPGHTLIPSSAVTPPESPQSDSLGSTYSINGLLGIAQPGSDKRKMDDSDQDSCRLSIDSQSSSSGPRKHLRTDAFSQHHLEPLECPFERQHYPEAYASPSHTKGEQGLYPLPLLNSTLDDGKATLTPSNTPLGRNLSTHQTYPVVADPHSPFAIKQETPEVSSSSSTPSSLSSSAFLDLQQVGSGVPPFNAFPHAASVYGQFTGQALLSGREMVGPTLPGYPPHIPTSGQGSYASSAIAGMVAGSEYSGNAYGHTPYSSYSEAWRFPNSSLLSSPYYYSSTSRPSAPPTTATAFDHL
Dual specificity protein phosphatase 3, sequence (P51452 whole entry): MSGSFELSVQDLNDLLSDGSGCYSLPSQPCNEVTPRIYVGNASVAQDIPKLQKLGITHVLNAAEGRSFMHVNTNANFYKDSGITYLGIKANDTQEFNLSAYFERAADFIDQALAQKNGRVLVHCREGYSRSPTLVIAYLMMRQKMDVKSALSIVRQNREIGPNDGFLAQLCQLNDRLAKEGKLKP
Glucose-6-phosphate 1-dehydrogenase, sequence (P11413 whole entry): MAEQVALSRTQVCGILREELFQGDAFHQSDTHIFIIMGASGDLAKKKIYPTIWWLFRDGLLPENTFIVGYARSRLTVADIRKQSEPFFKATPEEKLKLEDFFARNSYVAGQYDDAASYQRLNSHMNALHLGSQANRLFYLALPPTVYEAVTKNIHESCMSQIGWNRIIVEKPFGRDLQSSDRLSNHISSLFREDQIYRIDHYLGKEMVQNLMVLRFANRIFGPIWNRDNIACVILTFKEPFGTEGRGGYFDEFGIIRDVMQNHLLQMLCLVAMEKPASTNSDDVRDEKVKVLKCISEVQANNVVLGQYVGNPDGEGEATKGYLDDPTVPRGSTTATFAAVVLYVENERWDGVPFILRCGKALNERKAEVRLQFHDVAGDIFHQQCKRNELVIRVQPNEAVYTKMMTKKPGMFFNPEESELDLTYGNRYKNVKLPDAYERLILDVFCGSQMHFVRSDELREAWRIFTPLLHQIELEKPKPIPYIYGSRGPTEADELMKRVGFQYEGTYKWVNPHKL

## CCOC(=O)N1CCC(N(CCN(C)C)C(=S)Nc2cc(Cl)ccc2C)CC1
[1]
  IC50: 11.8 µM (active)
[2]
  IC50: 32.2 µM (inactive)
[3]
  IC50: 2.14 µM (active)

## COc1ccc(C2NCCc3[nH]cnc32)cc1 (stereo not drawn)
[4]
  EC50: 3.35 µM (active)

## CCOC(=O)c1c(C2COc3ccccc3O2)csc1NC(=O)c1ccco1 (stereo not drawn)
[5]
  EC50: > 40 µM (inactive)
[6]
  IC50: > 40 µM (not active)
[7]
  IC50: > 80 µM (inactive)

## Cc1ccc(Cl)cc1N1CCN(CCN)CC1
[4]
  EC50: 0.211 µM (active)

## COc1ccc(CSCCN)cc1Cl
[4]
  EC50: 5.96 µM (active)

## Cc1ccc(S(=O)(=O)N2[C@@H](c3ccc(C(C)(C)C)cc3)C(C(=O)O)=CC[C@H]2c2ccc(Cl)c(Cl)c2)cc1
[8]
  IC50: > 66.6 µM (inactive)
[9]
  IC50: 18.8 µM (active)

## COc1ccccc1CC(=O)N1CCN(CCc2ccccc2)CC1
[4]
  EC50: 4.22 µM (active)

## CCc1ccc(C2CC(c3ccc(F)cc3)Nc3nc(N)nn32)cc1 (stereo not drawn)
[10]
  EC50: 48.1 µM (inactive)

## CCc1ccc(C(=O)NNc2ccc(C)c(Cl)c2)cc1
[5]
  EC50: > 40 µM (inactive)
[6]
  IC50: 2.55 µM (active)

## CCCCN(CC)CCCNC(=O)Cn1nc(Cc2cccnc2)c2ccccc2c1=O
[4]
  EC50: 1.88 µM (active)

## Cc1cc(NC(=O)Cc2ccccc2)c2ccccc2n1
[11]
  IC50: 1.3 µM (active)
[12]
  EC50: > 29.9 µM (inactive)

## O=C(Nc1nc2ccc([N+](=O)[O-])cc2s1)C1CCCO1 (stereo not drawn)
[13]
  EC50: 0.224 µM (active)
[14]
  EC50: > 120 µM (not active)
[15]
  AC50: 0.577 µM (active)

## COc1ccc2c(Cl)c(C(=O)NCc3ccco3)sc2c1
[15]
  AC50: 0.273 µM (active)

## CC(=O)Nc1cc(-c2ccccc2)cn2c(-c3cccc(C(C)=O)c3)cnc12
[16]
  IC50: > 79 µM (inactive)
[10]
  EC50: > 89.2 µM (inactive)

## O=C(O)C1=CCC=CC1C(=O)O (stereo not drawn)
[8]
  IC50: > 66.6 µM (inactive)
[9]
  IC50: 5.69 µM (active)

## CC(=O)Nc1cc(-c2ccc(S(C)(=O)=O)cc2)cn2c(-c3ccc(F)c(Cl)c3)cnc12
[10]
  EC50: > 89.2 µM (inactive)

## COc1cccc(NC(=S)N/N=C2\CC3CCC2(C)C3(C)C)c1 (stereo not drawn)
[5]
  EC50: > 40 µM (inactive)
[6]
  IC50: 27.4 µM (not active)

## Cc1ccc(S(=O)(=O)N2CC[C@@H]3[C@H](CO)N(C)c4ccc(-c5ccc(C#N)cc5)cc4[C@@H]32)cc1
[17]
  AC50: 7.55 µM (active)
[18]
  AC50: 28.6 µM (active)
[19]
  AC50: 48.4 µM (active)

## C[C@@H]1CCCCO[C@@H](CN(C)Cc2ccc(C(F)(F)F)cc2)[C@@H](C)CN([C@@H](C)CO)C(=O)c2cc(NS(=O)(=O)c3ccc(Cl)cc3)ccc2O1
[17]
  AC50: 7.31 µM (active)
[20]
  AC50: 27.4 µM (active)
[18]
  AC50: 53.5 µM (active)
[19]
  AC50: 43.7 µM (active)

## CN(C)/C=N/c1nc(-c2ccc3c(c2)OCO3)cs1
[21]
  AC50: 10.9 µM (active)
[15]
  AC50: 3.64 µM (active)
